Assay results published in US7923204B2, “Forward mutation assay based on 5-fluorouracil resistance” (priority 2003, dated 2011).
Where two headings read alike, the source gives them in different places.

Tests used:
FU100 [1] = settings: for Results (5-FU assay): FU100, 2 h exposure; for Lowest Positive Dose: lowest dose tested giving a positive response; for response in the 5-FU Assay (in words): text and figure legend (FIG. 6), with or without S9
Protocol: Briefly, in order to practice the disclosed mutation assay one-ml aliquots of exponentially growing bacteria are exposed to the test agent for two hours in the presence and absence of a metabolic activation system, such as a mammalian (i.e., rat, hamster or human) liver homogenate (S9-fraction or liver microsomal enzymes). The aliquots are then diluted, allowed to grow for 3 hours, and assessed for treatment-related toxicity/inhibition by optical density. The cultures are subsequently diluted a second time and grown overnight to permit full recovery from toxicity and to allow expression of the FU^R phenotype. Samples of the cultures are then plated in 384-well microtiter dishes in the presence of 2 μg/ml 5-FU and the pH-sensitive indicator bromcresol purple. Three days later positive wells containing FU^R colonies are detected by their yellow color and enumerated. Treated cultures are then compared to control plates to determine genotoxic activity.
For each mutation experiment, two frozen 1-ml aliquots of FU100 were quickly thawed in a 37° C. water bath, pelleted by centrifugation, washed to remove the DMSO, and suspended in 35 mL of MinE medium. The culture was shaken for approximately 1 hour at 37° C. until the optical density at 600 nm (OD600) reached the target density of 0.3. A 16-ml aliquot of culture was added to each of two 50-ml tubes containing 3.6 ml of a NADPH-generating system (5.6 mM glucose-6-phosphate, 4.5 mM NADP+, 5 mM sucrose, 110 mM Na2HPO4, 37 mM KCl, and 9 mM MgCl2) and either 0.4 ml rat liver S-9 or an equal volume of sodium phosphate buffer. Aliquots of these mixtures were distributed into three 12-well cluster dishes (one for exposure with S-9, one for exposure without S-9, one for controls with and without S-9), and exposed to test compounds as 1-ml aliquots for 2 hour as outlined in FIG. 1.
Following treatment, the 1-ml aliquots were transferred into 9 ml of warm MinE medium in a 50 ml tube and incubated at 37° C. on a rotary wheel for 3 hours. Next, 20 ml of medium was added to each culture tube and 0.25 ml aliquots were transferred to a 96-well plate for OD600 measurements to assess toxicity (OD Day 1). […] Bulk cultures were then incubated overnight in the dark at 30° C. to permit recovery from toxicity and to allow time for the test cells to express the FU^R phenotype.
The next day, OD600 was again assessed to adjust cell number plated on 5-FU plates (OD Day 2; 100 μl of the culture diluted with 150 μl MinE medium for OD600 measurements). For plating, a 35 μl aliquot of each culture was added to 31.4 mL of MinE medium with 2 μg/ml of 5-FU and 10 μg/ml of bromcresol purple. The mixture was then dispersed into a 384-well plate (75 μl/well) and placed at 37° C. for 3 days in a humidified incubator.
The data obtained for both survival (OD day 1), relative number of cells plated (OD day 2), and number of positive wells were imported into an Excel template.
Table 8 summarizes the criteria for positive result in 5-FU assay using the FU100 tester strain described and claimed herein. […] A positive compound was defined when two or more doses met the aforementioned criteria.

TA100, TA1535 = settings: TA100 or TA1535; plate incorporation or liquid suspension
From the text: As stated above, the Ames Salmonella his+ plate incorporation assay evaluates genotoxic activity (mutagenicity) of chemical compounds on a set of genetically modified bacterial tester strains that are auxotrophic for the amino acid histidine. In practice, the Ames Assay simultaneously evaluates the genotoxic activity of a potential mutagen on several different target genes. The standard Ames Assay utilizes several different tester strains, each with a distinct mutation (e.g., transition, frameshift etc.) in one of the genes comprising the histidine (his) biosynthetic operon. The his operon encodes enzymes required for the biosynthesis of the amino acid histidine. For example, strain TA98 contains the hisD3052 allele which is reverted by a frameshift mutation, while strain TA1535 contains the hisG46 allele which is reverted by transition and transversion mutations. More specifically, the Ames Assay evaluates the ability of a chemical agent to increase the rate of reversion of auxotrophic strains of Salmonella to prototrophy.

FU100 [2] = settings: approximate, first dose with greater than 50% survival by optical density on Day 1
Salmonella = settings: NTP Results Report 12 Aug. 2002 or cited reference (footnotes f, g, i, j); cited from earlier work
chromosome aberrations = settings: NTP Results Report 12 Aug. 2002; cited from earlier work
[3] = test system: sister chromatid exchange; settings: NTP Results Report 12 Aug. 2002; cited from earlier work
micronucleus = settings: NTP Results Report 12 Aug. 2002; cited from earlier work
mouse lymphoma = settings: NTP Results Report 12 Aug. 2002; cited from earlier work
wild-type cells = assay: Growth inhibition by 5-fluoroorotic acid (block of de novo pyrimidine synthesis); format: cell-based, Salmonella; settings: 50 μg/ml; reversed by addition of 20 μg/ml uracil
From the text: It was recognized that reducing the background mutation frequency by eliminating preexisting FU^R mutants could increase the sensitivity of the assay. Since the only mechanism leading to 5-FU resistance in Salmonella involves loss of uracil phosphoribosyltransferase, a uracil salvage enzyme and product of the upp gene, it was theorized that blockage of the de novo pyrimidine synthesis and supplementation with uracil should permit growth of wild-type cells and selection against FU^R upp mutants.
It was also determined that upp mutants cannot grow in the presence of 5-fluorooroticacid and uracil, presumably due to their inability to utilize exogenous uracil. […] Frozen stocks of FU100 were prepared using cultures grown under these conditions (described in Materials and Methods) in order to produce “cleansed” working stocks with reduced background.

[4] = in the presence of S9 activation (+)

Protocol for TA100 his+: A study was then conducted to determine the optimal concentration of the selective agent 5-FU. The growth rate was determined for cultures in MinE containing up to 8 μg/ml 5-FU.

| SMILES | Results (5-FU assay) (FU100 [1]; [4]) | Lowest Positive Dose (FU100 [1]; [4]) | response in the 5-FU Assay (in words) (FU100 [1]) | Results (5-FU assay) (FU100 [1]; without S9 activation (−)) | response in the standard Ames assay (in words) (TA100, TA1535) | LD50 (FU100 [2]; [4]) | LD50 (FU100 [2]; without S9 activation (−)) | NTP Results: SA = Salmonella (Salmonella) | NTP Results: CA = chromosome aberrations (chromosome aberrations) | NTP Results: SC = sister chromatid exchange [3] | NTP Results: MN = micronucleus (micronucleus) | 5-FU concentration that significantly inhibited culture growth (TA100 his+) | 5-FU concentration at which cultures continued to grow (longer doubling times) (TA100 his+; cultures in MinE, up to 8 μg/ml 5-FU, data not shown) | response in the 5-FU Assay (in words) (FU100 [1]; listed as 1,2-epoxybutane) | Lowest Positive Dose (FU100 [1]; without S9 activation (−)) | NTP Results: ML = mouse lymphoma (mouse lymphoma) | effect on growth of wild-type cells (wild-type cells) |
| --- | --- | --- | --- | --- | --- | --- | --- | --- | --- | --- | --- | --- | --- | --- | --- | --- | --- |
| O=P1(N(CCCl)CCCl)NCCCO1 (stereo not shown) [Cyclophosphamide•H2O] | Pos^w | 1500 µg/mL | weak positive | Neg | positive | >300 µg/mL | >1500 µg/mL | (SA+, CA+, SC+, MN+) | (SA+, CA+, SC+, MN+) | (SA+, CA+, SC+, MN+) | (SA+, CA+, SC+, MN+) |  |  |  |  |  |  |
| O=c1[nH]cc(F)c(=O)[nH]1 [5-FU, 5-fluorouracil] |  |  |  |  |  |  |  |  |  |  |  | greater than or equal to 1 μg/ml | less than or equal to 0.5 μg/ml |  |  |  |  |
| CCC1CO1 (stereo not shown) [1,2-Epoxybutane] | Pos | 500 µg/mL | positive compounds in non-toxic concentrations | Pos | weak or equivocal response | >5000 µg/mL | >5000 µg/mL | + | + | + | − |  |  | easy to detect | 8.9 µg/mL | + |  |
| O=C(O)c1[nH]c(=O)[nH]c(=O)c1F [5-fluorooroticacid, 5-fluoroorotic acid] |  |  |  |  |  |  |  |  |  |  |  |  |  |  |  |  | inhibited growth |
| ClCc1ccccc1 [Benzyl Chloride] | Pos | 50 µg/mL | easy to detect | Pos | weak or equivocal response | >150 µg/mL | >1500 µg/mL | +^w | + | + |  |  |  |  | 28 µg/mL | + |  |
